≈ marks a conversion by molar mass, not a printed value.
Assays:
[1] = tested on: PANC-1 (pancreatic cancer); test: Solid tumor cell growth inhibition, MTT, 72 h (Example 7); type: cell-based, human; conditions: Homo sapiens; 72 h, MTT, PANC-1
Method: (§1) Human solid tumor cell lines: Hep-2 (laryngeal carcinoma), A549 (human lung cancer), CaES-17 (esophageal cancer cell), PC-3 (prostate cancer), CNE (nasopharyngeal carcinoma cell) and SK-OV-3 (ovarian cancer cell), all of which are purchased from China Center For Type Culture Collection; RKO (human colon adenocarcinoma cell), MGC 803 (human gastric cancer cell), MG63 (osteosarcoma), and U87 MG (malignant glioma cell), all of which are purchased from Fuxiang Bio-tech Co. Ltd., Shanghai, China; PANC-1 (pancreatic cancer), Huh? (human liver cancer cell), Becap37 (human breast cancer cell), and Hela (human cervical cancer cell), all of which are donated by Cancer Research Institute of Zhejiang University, China.
(§2) Reagents: the same as in Example 5.
(§3) Obtaining 4000 well-growing human solid tumor cells and inoculating them into wells of a 96-well cell culture plate. The culture medium is DMEM High Glucose cell culture medium containing 10% fetal bovine serum. The plate is placed in a carbon dioxide cell incubator (5% CO2) at 37° C. and incubated for 24 hours. After been added with tetrandrine derivatives of different concentration and mixing uniformly, the plate is placed in a carbon dioxide cell incubator (5% CO2) at 37° C. and incubated for 72 hours. Then the viable cell concentration is determined by the MTT method and the cell viability (%) after drug treatment is calculated. In this experiment, the cell viability of control group (not treated with any compound) is set as 100%.

[2] = tested on: MG63 (osteosarcoma); test: as above; type: cell-based, human; conditions: Homo sapiens; 72 h, MTT, MG-63
Method: as §1, §2, §3

[3] = tested on: PC-3 (prostate cancer); test: as above; type: cell-based, human; conditions: Homo sapiens; 72 h, MTT, PC-3
Method: as §1, §2, §3

[4] = tested on: CaES-17 (esophageal cancer cell); test: as above; type: cell-based, human; conditions: Homo sapiens, CaEs17; 72 h, MTT, CAES-17
Method: as §1, §2, §3

[5] = tested on: Becap37 (human breast cancer cell); test: as above; type: cell-based; conditions: Homo sapiens; 72 h, MTT, Becap-37
Method: as §1, §2, §3

[6] = tested on: A549 (human lung cancer); test: as above; type: cell-based; conditions: Homo sapiens; 72 h, MTT, A549
Method: as §1, §2, §3

[7] = tested on: Huh7 (human liver cancer cell); test: as above; type: cell-based; conditions: Homo sapiens; 72 h, MTT, Huh-7
Method: as §1, §2, §3

[8] = tested on: RKO (human colon adenocarcinoma cell); test: as above; type: cell-based; conditions: Homo sapiens; 72 h, MTT, RKO
Method: as §1, §2, §3

[9] = tested on: MGC 803 (human gastric cancer cell); test: as above; type: cell-based; conditions: Homo sapiens
Method: as §1, §2, §3

[10] = tested on: H9 (acute lymphoblastic leukemia, ALL); test: Leukemia cell growth inhibition, MTT, 72 h (Example 5); type: cell-based, human; conditions: Homo sapiens; 72 h, MTT
Text: (§4) Leukemia cell lines: leukemia cell lines: K562/adr (drug-resistant, chronic myeloid leukemia, CML), NB4 (acute promyelocytic leukemia, AML), Kasumi-1 (acute myeloid leukemia M2 type, AML-M2), Jurkat (acute lymphoblastic leukemia, ALL), all of which are donated by Cancer Research Institute of Zhejiang University, China; and H9 (acute lymphoblastic leukemia, ALL), which is purchased from China Center for Type Culture Collection.
(§5) Reagents: The standard sample of tetrandrine (TTD) is purchased from Ci Yuan Biotechnology Co., Ltd., Shaanxi, China; and the 5-substituted tetrandrine derivatives of the present invention.
(§6) Obtaining 6000 well-growing leukemia cells and inoculating them into wells of a 96-well cell culture plate. The culture medium is a 1640 cell culture medium containing 10% fetal bovine serum. After adding the tetrandrine derivatives of different concentrations and mixing uniformly, placing the plate in a carbon dioxide cell incubator (5% CO2) at 37° C. and incubating for 72 hours. Then the viable cell concentration is determined by the MTT method.

[11] = tested on: K562/adr (drug-resistant, chronic myeloid leukemia, CML); test: as above; type: cell-based, human; conditions: Homo sapiens, K562/Adr; 72 h, MTT
Text: as §4, §5, §6

[12] = tested on: Jurkat (acute lymphoblastic leukemia, ALL); test: as above; type: cell-based, human; conditions: Homo sapiens, Jurkat; 72 h, MTT
Text: as §4, §5, §6

[13] = tested on: Kasumi-1 (acute myeloid leukemia M2 type, AML-M2); test: as above; type: cell-based, human; conditions: Homo sapiens, Kasumi 1
Text: as §4, §5, §6

[14] = tested on: RPMI8226 (multiple myeloma); test: Multiple myeloma cell growth inhibition, MTT, 72 h (Example 6); type: cell-based, human; conditions: Homo sapiens, RPMI-8226; 72 h, MTT, RPMI8226
Method: Multiple myeloma and lymphoma cell lines: RPMI8226 (multiple myeloma), purchased from Fuxiang Bio-tech Co. Ltd., Shanghai, China.
as §2
as §6, with “incubated” for “incubating”

IC50 [1] [µg/mL] | IC90 [1] [µg/mL] | IC50 [2] [µg/mL] | IC90 [2] [µg/mL] | IC50 [3] [µg/mL] | IC90 [3] [µg/mL] | IC50 [4] [µg/mL] | IC90 [4] [µg/mL] | IC50 [5] [µg/mL] | IC90 [5] [µg/mL] | IC50 [6] [µg/mL] | IC90 [6] [µg/mL] | IC50 [7] [µg/mL] | IC90 [7] [µg/mL] | IC50 [9] [µg/mL] | IC90 [9] [µg/mL] | IC50 [10] [µg/mL] | IC90 [10] [µg/mL] | IC50 [11] [µg/mL] | IC90 [11] [µg/mL] | Structure (SMILES) | also measured
6.47 (≈ 8.09 µM) | 11.1 (≈ 13.9 µM) | 1.72 (≈ 2.15 µM) | 4.69 (≈ 5.86 µM) | 6.55 (≈ 8.19 µM) | 9 (≈ 11.3 µM) | 6.81 (≈ 8.51 µM) | 16.6 (≈ 20.8 µM) | 3.66 (≈ 4.58 µM) | 6.19 (≈ 7.74 µM) | 3.12 (≈ 3.9 µM) | 14.2 (≈ 17.7 µM) | 2.08 (≈ 2.6 µM) | 3.88 (≈ 4.85 µM) | 2.57 (≈ 3.21 µM) | 9 (≈ 11.3 µM) | 2.88 (≈ 3.6 µM) | 5.84 (≈ 7.3 µM) | 1.47 (≈ 1.84 µM) | 14.5 (≈ 18.1 µM) | COc1ccc2cc1Oc1ccc(cc1)C[C@H]1c3cc(c(OC)cc3CCN1C)Oc1c(OC)c(OC)c(COC(=O)c3ccc(N(C)C)cc3)c3c1[C@H](C2)N(C)CC3 [BS-TE-204] | IC50 [8]: 3.12 µg/mL (≈ 3.9 µM); IC90 [8]: 4.7 µg/mL (≈ 5.88 µM); IC50 [12]: 2.66 µg/mL (≈ 3.33 µM); IC90 [12]: 9.06 µg/mL (≈ 11.3 µM); IC50 [13]: 2.32 µg/mL (≈ 2.9 µM); IC90 [13]: 7.5 µg/mL (≈ 9.38 µM); IC50 [14]: 0.47 µg/mL (≈ 0.588 µM); IC90 [14]: 1.92 µg/mL (≈ 2.4 µM)
6.17 (≈ 8.78 µM) | 9.8 (≈ 13.9 µM) | 1.96 (≈ 2.79 µM) | 4.38 (≈ 6.23 µM) | 3.68 (≈ 5.24 µM) | 7.59 (≈ 10.8 µM) | 2.4 (≈ 3.41 µM) | 7.94 (≈ 11.3 µM) | 6 (≈ 8.54 µM) | 12 (≈ 17.1 µM) | 5.44 (≈ 7.74 µM) | 16 (≈ 22.7 µM) | 2.96 (≈ 4.21 µM) | 4.9 (≈ 6.97 µM) | 1.61 (≈ 2.29 µM) | 6.48 (≈ 9.22 µM) | 2.03 (≈ 2.89 µM) | 4.03 (≈ 5.73 µM) | 0.56 (≈ 0.797 µM) | 2.83 (≈ 4.03 µM) | COc1ccc2cc1Oc1ccc(cc1)C[C@H]1c3cc(c(OC)cc3CCN1C)Oc1c(OC)c(OC)c(Cn3cccn3)c3c1[C@H](C2)N(C)CC3 [BS-TE-330] | IC50 [8]: 2.5 µg/mL (≈ 3.56 µM); IC90 [8]: 4.64 µg/mL (≈ 6.6 µM); IC50 [12]: 2.37 µg/mL (≈ 3.37 µM); IC90 [12]: 5.51 µg/mL (≈ 7.84 µM); IC50 [13]: 1.45 µg/mL (≈ 2.06 µM); IC90 [13]: 6.95 µg/mL (≈ 9.89 µM); IC50 [14]: 0.18 µg/mL (≈ 0.256 µM); IC90 [14]: 1.22 µg/mL (≈ 1.74 µM)
4.63 (≈ 6.39 µM) | 10 (≈ 13.8 µM) | 1.08 (≈ 1.49 µM) | 2.49 (≈ 3.43 µM) | 4.19 (≈ 5.78 µM) | 9.49 (≈ 13.1 µM) | 2.3 (≈ 3.17 µM) | 16.6 (≈ 22.9 µM) | 1.8 (≈ 2.48 µM) | 4.31 (≈ 5.95 µM) | 4.05 (≈ 5.59 µM) | 11 (≈ 15.1 µM) | 2.93 (≈ 4.04 µM) | 5.07 (≈ 6.99 µM) | 5.17 (≈ 7.13 µM) | 8.33 (≈ 11.5 µM) | 2.31 (≈ 3.19 µM) | 4.4 (≈ 6.07 µM) | 0.98 (≈ 1.35 µM) | 5.59 (≈ 7.71 µM) | COCCCOCc1c2c3c(c(OC)c1OC)Oc1cc4c(cc1OC)CCN(C)[C@H]4Cc1ccc(cc1)Oc1cc(ccc1OC)C[C@@H]3N(C)CC2 [BS-TE-416] | IC50 [12]: 3.45 µg/mL (≈ 4.76 µM); IC90 [12]: 11.7 µg/mL (≈ 16.1 µM); IC50 [13]: 2.11 µg/mL (≈ 2.91 µM); IC90 [13]: 8.17 µg/mL (≈ 11.3 µM); IC50 [14]: 0.29 µg/mL (≈ 0.4 µM); IC90 [14]: 2.76 µg/mL (≈ 3.81 µM)
